In US8580478B2, “Latent acids and their use” (BASF SE, priority 2010, dated 2013):

Experiment: Solubility of photoacid generator compounds in cyclohexanone
Type: physicochemical
Conditions: cyclohexanone as solvent, with stirring; lower amount = better solubility
Experimental: In order to determine the solubility of photoacid generator compounds of the present invention, to a weighed amount of the compound to be tested is added cyclohexanone as the solvent with stirring. Determined is the amount of cyclohexanone needed to completely dissolve the photoacid generator compound. […]

Structure (SMILES): CC12CCC(C(=O)OCC(F)C(F)(F)S(=O)(=O)O)(OC1=O)C2(C)C (stereo not shown) [Example 57]
- Solvent needed to completely dissolve 10 g of the compound: 24 mL
